This is an account of results in ChEMBL document CHEMBL3046312, “Synthesis and biologic evaluation of new 3-phenoxyazetidin-2-one derivatives as selective cyclooxygenase-2 inhibitors” (Med Chem Res, 2013).

This assay addresses T1, Prostaglandin G/H synthase 1 (Ovis aries, UniProt P05979).
T1 sequence (P05979 whole entry): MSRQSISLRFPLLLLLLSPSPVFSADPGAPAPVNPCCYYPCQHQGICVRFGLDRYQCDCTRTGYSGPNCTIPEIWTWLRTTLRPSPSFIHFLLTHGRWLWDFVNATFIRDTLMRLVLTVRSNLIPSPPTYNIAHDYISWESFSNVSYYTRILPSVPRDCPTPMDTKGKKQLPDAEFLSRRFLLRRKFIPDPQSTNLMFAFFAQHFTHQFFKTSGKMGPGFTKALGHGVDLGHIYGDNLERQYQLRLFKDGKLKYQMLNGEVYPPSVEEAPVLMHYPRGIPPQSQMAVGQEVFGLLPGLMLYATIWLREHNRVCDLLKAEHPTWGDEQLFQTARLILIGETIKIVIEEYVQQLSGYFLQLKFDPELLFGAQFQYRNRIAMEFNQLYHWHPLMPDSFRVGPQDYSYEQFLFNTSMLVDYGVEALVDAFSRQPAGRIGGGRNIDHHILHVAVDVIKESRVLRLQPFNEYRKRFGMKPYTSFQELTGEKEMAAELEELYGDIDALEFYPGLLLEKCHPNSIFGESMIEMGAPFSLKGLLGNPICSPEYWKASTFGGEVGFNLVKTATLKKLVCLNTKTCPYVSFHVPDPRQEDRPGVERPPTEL
As to the kind of experiment: Inhibition of Ovis aries (sheep) cyclooxygenase-1 using arachidonic acid as substrate by chemiluminescent assay.

Take `CCCN1C(=O)[C@@H](Oc2ccccc2)[C@H]1c1ccc(S(C)(=O)=O)cc1` (relative stereo): the IC50 (as a rule, the concentration at which inhibition is half-maximal) came out at 21.7 µM.

For `CC(C)N1C(=O)[C@@H](Oc2ccccc2)[C@H]1c1ccc(S(C)(=O)=O)cc1` (relative stereo), the half-maximal inhibitory concentration (IC50) stood at 21.8 µM.

Molecule `CCCCN1C(=O)[C@@H](Oc2ccccc2)[C@H]1c1ccc(S(C)(=O)=O)cc1` (relative stereo) came in with an IC50 of 20.9 µM.

For `CCCCCN1C(=O)[C@@H](Oc2ccccc2)[C@H]1c1ccc(S(C)(=O)=O)cc1` (relative stereo), the IC50 worked out at 21.2 µM.

In turn, `CS(=O)(=O)c1ccc([C@@H]2[C@H](Oc3ccccc3)C(=O)N2C2CCCCC2)cc1` (relative stereo) gave an IC50 of 19.5 µM.

Turning to `CS(=O)(=O)c1ccc([C@@H]2[C@H](Oc3ccccc3)C(=O)N2c2ccccc2)cc1` (relative stereo), it took 19.9 µM to reach half-maximal inhibition (IC50).

For the molecule `CS(=O)(=O)c1ccc([C@@H]2[C@H](Oc3ccccc3)C(=O)N2c2ccc(F)cc2)cc1` (relative stereo), the midpoint of inhibition, the IC50, lay at 19 µM.

`CS(=O)(=O)c1ccc([C@@H]2[C@H](Oc3ccccc3)C(=O)N2c2ccc(Cl)cc2)cc1` (relative stereo) displayed an IC50 of 18.3 µM. The IC50 values of the last two molecules are within 1.5-fold of each other.

Molecule `Cc1ccc(N2C(=O)[C@@H](Oc3ccccc3)[C@H]2c2ccc(S(C)(=O)=O)cc2)cc1` (relative stereo) came in with an IC50 of 18.1 µM.

As for `COc1ccc(N2C(=O)[C@@H](Oc3ccccc3)[C@H]2c2ccc(S(C)(=O)=O)cc2)cc1` (relative stereo), the IC50 was 19.2 µM.
